Data as given in ChEMBL document CHEMBL4765450, “The components and activities analysis of a novel anticoagulant candidate dHG-5” (Eur J Med Chem, 2020).
Calls of active or inactive are those of the source. The calls are words filed in the database; no cut-off is given here.

How the values were obtained:
[1] = MRT (0 to 8 hrs) in Kunming mouse at 1.7 mg/kg, sc; assay type: ADME, organism-based; conditions: in vivo
[2] = target: Coagulation factor X (Homo sapiens) (UniProt P00742); assay: Inhibition of factor 10a (unknown origin) at IC50 preincubated for 1 min followed by chromogenic substrate addition and measured for 2 mins; conditions: time 3.0 min
[3] = Half life in Kunming mouse at 1.7 mg/kg, sc; assay type: ADME, organism-based; conditions: in vivo
Plasma [4] = assay: Induction of platelet aggregation in rat wash platelet at plasma peak concentration of 10 times anti-thrombosis ED50 measured after 10 mins by light transmission aggregometry
Coagulation factor IX = Coagulation factor IX (Homo sapiens, UniProt P00740); assay: Inhibition of factor 9a (unknown origin) binding to immobilized biotinylated oHG-11 by biolayer interferometry
Mus musculus [5] = assay: Anticoagulation activity in Kunming mouse assessed as APTT-prolonging effect by measuring time for maximum effect at 15.3 mg/kg, sc measured after 0.5 to 8 hrs by APTT reagent based assay; assay type: functional; conditions: time 0.5-8 hrs
Plasma [6] = assay: Anticoagulation activity in AT-III-deficient human plasma preincubated for 2 mins followed by APTT reagent and measured after 3 mins by coagulometric method; assay type: functional, cell-free; conditions: time 5.0 min
[7] = target: Prothrombin (Homo sapiens) (UniProt P00734); assay: Inhibition of factor 2a (unknown origin) at IC90 preincubated for 1 min followed by chromogenic substrate addition and measured for 2 mins in presence of AT-III; conditions: time 3.0 min
[8] = MRT (0 to infinity) in Kunming mouse at 5.11 mg/kg, sc; assay type: ADME, organism-based; conditions: in vivo
[9] = target: Coagulation factor X (Homo sapiens) (UniProt P00742); assay: Inhibition of factor 10a (unknown origin) at IC50 preincubated for 1 min followed by chromogenic substrate addition and measured for 2 mins in presence of AT-III; conditions: time 3.0 min
[10] = target: T1, Coagulation factor XII (Homo sapiens) (UniProt P00748); assay: Inhibition of factor 12a (unknown origin) at IC50 using kallikrein chromogenic substrate preincubated for 1 min followed by chromogenic substrate addition and measured for 2 mins; conditions: time 3.0 min
T1 sequence (whole entry): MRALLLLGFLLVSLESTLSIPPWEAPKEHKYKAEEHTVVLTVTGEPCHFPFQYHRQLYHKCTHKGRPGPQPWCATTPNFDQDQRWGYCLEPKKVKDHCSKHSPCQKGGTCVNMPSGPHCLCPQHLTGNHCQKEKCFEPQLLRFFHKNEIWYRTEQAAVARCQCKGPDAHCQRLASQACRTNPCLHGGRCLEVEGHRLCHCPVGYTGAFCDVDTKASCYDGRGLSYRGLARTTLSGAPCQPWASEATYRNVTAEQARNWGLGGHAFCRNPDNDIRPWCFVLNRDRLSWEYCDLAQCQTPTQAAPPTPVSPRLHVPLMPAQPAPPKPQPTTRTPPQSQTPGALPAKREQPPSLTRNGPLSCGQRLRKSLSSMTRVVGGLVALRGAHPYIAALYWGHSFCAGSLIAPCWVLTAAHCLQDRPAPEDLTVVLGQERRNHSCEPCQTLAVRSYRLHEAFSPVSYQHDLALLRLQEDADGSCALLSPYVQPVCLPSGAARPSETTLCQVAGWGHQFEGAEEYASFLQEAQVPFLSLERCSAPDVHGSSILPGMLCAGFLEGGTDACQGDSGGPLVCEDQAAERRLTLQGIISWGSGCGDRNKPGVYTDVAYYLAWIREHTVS

[11] = target: Coagulation factor XI (Homo sapiens) (UniProt P03951); assay: Inhibition of factor 11a (unknown origin) at IC50 using S-2366 as substrate preincubated for 1 min followed by chromogenic substrate addition and measured for 2 mins in presence of AT-III; conditions: time 3.0 min
Plasma [12] = assay: Anticoagulation activity in HCII-deficient human plasma preincubated for 2 mins followed by APTT reagent and measured after 3 mins by coagulometric method; assay type: functional, cell-free; conditions: time 5.0 min
[13] = target: Prothrombin (Homo sapiens) (UniProt P00734); assay: Inhibition of factor 2a (unknown origin) at IC50 preincubated for 1 min followed by chromogenic substrate addition and measured for 2 mins in presence of AT-III; conditions: time 3.0 min
Mus musculus [14] = assay: Anticoagulation activity in Kunming mouse assessed as APTT-prolonging effect by measuring time for maximum effect at 5.11 mg/kg, sc measured after 0.5 to 8 hrs by APTT reagent based assay; assay type: functional; conditions: time 0.5-8 hrs
[15] = Tmax in Kunming mouse at 1.7 mg/kg, sc; assay type: ADME, organism-based; conditions: in vivo
[16] = target: T2, Coagulation factor VII (Homo sapiens) (UniProt P08709); assay: Inhibition of factor 7a (unknown origin) at IC50 using pefachrome factor VIIa as substrate preincubated for 1 min followed by chromogenic substrate addition and measured for 2 mins in presence of AT-III; conditions: time 3.0 min
T2 sequence (whole entry): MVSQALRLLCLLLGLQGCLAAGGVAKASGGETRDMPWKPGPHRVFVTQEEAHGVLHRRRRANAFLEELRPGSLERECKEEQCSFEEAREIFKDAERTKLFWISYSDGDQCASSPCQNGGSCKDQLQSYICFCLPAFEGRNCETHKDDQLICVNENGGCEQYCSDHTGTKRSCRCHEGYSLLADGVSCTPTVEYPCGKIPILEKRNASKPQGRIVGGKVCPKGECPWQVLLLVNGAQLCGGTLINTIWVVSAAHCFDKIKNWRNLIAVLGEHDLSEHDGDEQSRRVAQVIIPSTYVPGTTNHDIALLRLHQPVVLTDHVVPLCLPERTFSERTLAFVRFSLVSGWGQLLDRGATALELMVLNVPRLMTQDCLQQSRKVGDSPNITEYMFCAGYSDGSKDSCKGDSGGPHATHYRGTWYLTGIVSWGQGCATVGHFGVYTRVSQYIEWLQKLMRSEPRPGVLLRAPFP

[17] = Half life in Kunming mouse at 15.3 mg/kg, sc; assay type: ADME, organism-based; conditions: in vivo
[18] = Toxicity in Kunming mouse tail bleeding model assessed as blood loss at 73.01 mg/kg, sc measured after 1 hr by UV-vis spectrophotometry; assay type: organism-based; conditions: in vivo
Plasma [19] = assay: Induction of platelet aggregation in human platelet rich plasma at plasma peak concentration of 10 times anti-thrombosis ED50 measured after 10 mins by light transmission aggregometry
[20] = target: T2, Coagulation factor VII (Homo sapiens); assay: Inhibition of factor 7a (unknown origin) at IC50 using pefachrome factor VIIa as substrate preincubated for 1 min followed by chromogenic substrate addition and measured for 2 mins; conditions: time 3.0 min
[21] = target: Coagulation factor XI (Homo sapiens) (UniProt P03951); assay: Inhibition of factor 11a (unknown origin) at IC50 using S-2366 as substrate preincubated for 1 min followed by chromogenic substrate addition and measured for 2 mins; conditions: time 3.0 min
[22] = target: T1, Coagulation factor XII (Homo sapiens); assay: Inhibition of factor 12a (unknown origin) at IC50 using kallikrein chromogenic substrate preincubated for 1 min followed by chromogenic substrate addition and measured for 2 mins in presence of AT-III; conditions: time 3.0 min
[23] = target: Coagulation factor X (Homo sapiens) (UniProt P00742); assay: Inhibition of factor 10a (unknown origin) at IC90 preincubated for 1 min followed by chromogenic substrate addition and measured for 2 mins in presence of AT-III relative to control; conditions: time 3.0 min
[24] = target: Coagulation factor IX/VIII (Homo sapiens, UniProt P00451+P00740); assay: Inhibition of human citrated plasma iXase (factor 8a-factor 9a complex) preincubated for 2 mins followed by factor 10 addition and measured after 1 min by FXa chromogenic substrate SXa-11 based assay; assay type: protein-complex assay
[25] = Half life in Kunming mouse at 5.11 mg/kg, sc; assay type: ADME, organism-based; conditions: in vivo
[26] = Tmax in Kunming mouse at 15.3 mg/kg, sc; assay type: ADME, organism-based; conditions: in vivo

Coagulation factor X (Homo sapiens), sequence (P00742 41-179 limits assumed): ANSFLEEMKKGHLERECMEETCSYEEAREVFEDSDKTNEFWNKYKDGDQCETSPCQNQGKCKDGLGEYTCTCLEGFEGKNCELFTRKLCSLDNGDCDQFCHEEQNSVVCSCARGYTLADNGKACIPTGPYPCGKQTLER
Coagulation factor X (Homo sapiens), sequence (P00742 235-488 limits assumed): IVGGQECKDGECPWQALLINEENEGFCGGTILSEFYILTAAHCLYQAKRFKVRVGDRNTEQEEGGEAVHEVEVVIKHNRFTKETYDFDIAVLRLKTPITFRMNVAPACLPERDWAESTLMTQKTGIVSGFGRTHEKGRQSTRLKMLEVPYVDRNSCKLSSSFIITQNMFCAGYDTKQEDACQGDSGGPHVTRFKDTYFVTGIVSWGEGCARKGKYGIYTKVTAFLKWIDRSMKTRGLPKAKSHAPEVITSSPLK
Coagulation factor XI (Homo sapiens), sequence (P03951 19-387 limits assumed): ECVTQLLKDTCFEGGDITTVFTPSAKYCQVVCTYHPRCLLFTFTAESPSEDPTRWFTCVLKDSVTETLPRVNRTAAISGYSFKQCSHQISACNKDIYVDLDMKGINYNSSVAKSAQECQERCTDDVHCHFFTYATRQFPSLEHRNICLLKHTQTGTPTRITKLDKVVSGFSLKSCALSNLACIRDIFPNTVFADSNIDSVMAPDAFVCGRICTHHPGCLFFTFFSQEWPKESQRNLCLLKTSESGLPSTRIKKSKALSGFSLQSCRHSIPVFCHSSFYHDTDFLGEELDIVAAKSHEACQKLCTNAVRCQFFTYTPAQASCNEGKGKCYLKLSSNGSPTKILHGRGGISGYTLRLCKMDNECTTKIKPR
Coagulation factor XI (Homo sapiens), sequence (P03951 388-625 limits assumed): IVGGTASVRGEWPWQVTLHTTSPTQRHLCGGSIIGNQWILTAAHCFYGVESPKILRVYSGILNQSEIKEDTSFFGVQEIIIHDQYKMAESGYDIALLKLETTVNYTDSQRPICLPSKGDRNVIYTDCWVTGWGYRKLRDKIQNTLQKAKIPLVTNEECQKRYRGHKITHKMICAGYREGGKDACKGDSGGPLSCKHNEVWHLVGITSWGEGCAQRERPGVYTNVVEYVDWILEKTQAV
Coagulation factor IX/VIII, sequence (P00451 20-759 limits assumed): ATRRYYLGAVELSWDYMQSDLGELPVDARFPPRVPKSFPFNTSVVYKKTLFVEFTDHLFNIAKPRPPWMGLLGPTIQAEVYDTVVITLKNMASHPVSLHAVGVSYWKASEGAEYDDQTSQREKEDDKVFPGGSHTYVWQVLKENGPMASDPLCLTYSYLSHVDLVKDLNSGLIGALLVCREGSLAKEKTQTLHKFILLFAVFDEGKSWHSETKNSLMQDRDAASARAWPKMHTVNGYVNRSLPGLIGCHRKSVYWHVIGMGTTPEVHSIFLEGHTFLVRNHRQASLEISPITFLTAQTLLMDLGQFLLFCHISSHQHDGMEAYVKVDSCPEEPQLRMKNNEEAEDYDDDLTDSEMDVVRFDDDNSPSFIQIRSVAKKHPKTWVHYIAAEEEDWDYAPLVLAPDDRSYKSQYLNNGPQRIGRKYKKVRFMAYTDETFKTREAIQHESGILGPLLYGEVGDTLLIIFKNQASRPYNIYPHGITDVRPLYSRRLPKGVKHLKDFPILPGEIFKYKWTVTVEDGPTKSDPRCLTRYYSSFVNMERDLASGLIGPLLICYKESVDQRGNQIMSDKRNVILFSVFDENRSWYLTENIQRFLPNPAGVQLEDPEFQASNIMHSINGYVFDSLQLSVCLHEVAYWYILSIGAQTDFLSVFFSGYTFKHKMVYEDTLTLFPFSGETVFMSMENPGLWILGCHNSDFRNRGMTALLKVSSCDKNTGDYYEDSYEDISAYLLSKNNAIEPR
Coagulation factor IX/VIII, sequence (P00451 1668-2351 limits assumed): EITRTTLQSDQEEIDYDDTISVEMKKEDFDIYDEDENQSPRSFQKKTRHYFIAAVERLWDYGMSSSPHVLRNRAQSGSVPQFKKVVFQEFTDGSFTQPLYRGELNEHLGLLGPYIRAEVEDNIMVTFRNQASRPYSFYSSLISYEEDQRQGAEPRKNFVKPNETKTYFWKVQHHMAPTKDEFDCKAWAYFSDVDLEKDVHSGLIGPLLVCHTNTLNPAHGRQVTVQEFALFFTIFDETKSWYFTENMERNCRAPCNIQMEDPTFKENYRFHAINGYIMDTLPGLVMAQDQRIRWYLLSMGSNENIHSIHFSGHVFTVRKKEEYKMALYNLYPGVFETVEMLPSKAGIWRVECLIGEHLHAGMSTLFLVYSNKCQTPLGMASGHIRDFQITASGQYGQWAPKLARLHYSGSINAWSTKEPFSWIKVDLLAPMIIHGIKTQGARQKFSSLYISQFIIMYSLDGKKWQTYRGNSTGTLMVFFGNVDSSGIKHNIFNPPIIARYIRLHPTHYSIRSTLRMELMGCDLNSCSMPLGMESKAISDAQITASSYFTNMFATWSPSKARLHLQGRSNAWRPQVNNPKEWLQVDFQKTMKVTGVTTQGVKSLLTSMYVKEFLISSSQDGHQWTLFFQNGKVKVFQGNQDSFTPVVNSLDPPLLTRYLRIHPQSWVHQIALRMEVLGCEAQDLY
Coagulation factor IX/VIII, sequence (P00740 47-191 limits assumed): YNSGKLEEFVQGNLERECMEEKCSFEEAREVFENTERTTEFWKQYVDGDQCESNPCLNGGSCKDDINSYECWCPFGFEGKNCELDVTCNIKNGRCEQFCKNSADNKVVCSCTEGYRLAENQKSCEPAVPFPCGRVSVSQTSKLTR
Coagulation factor IX/VIII, sequence (P00740 227-461 limits assumed): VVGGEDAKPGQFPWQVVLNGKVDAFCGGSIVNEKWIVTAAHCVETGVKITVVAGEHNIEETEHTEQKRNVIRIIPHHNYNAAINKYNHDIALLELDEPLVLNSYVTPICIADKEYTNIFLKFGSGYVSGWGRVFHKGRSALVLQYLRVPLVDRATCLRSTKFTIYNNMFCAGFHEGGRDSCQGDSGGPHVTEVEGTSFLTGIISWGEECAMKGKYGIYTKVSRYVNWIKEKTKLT
Coagulation factor IX, sequence (P00740 47-191 limits assumed): as the sequence (P00740 47-191 limits assumed) above
Coagulation factor IX, sequence (P00740 227-461 limits assumed): as the sequence (P00740 227-461 limits assumed) above

MRT last [1]: 1.99 h | inhibition [2]: inactive | half-life [3]: 1.09 h | Activity (Plasma [4]): Not Active | IC50 (Coagulation factor IX): 430 nM | inhibition [7]: Active | MRT inf [8]: 1.52 h | inhibition [9]: inactive | inhibition [10]: inactive | inhibition [11]: inactive | inhibition [13]: inactive | Tmax [15]: 1.17 h | inhibition [16]: inactive | half-life [17]: 0.564 h | Activity (Plasma [19]): Not Active | inhibition (active/not active) [20]: inactive | inhibition [21]: inactive | inhibition [22]: inactive | inhibition [23]: inactive | IC50 [24]: 14 nM | half-life [25]: 0.563 h | Tmax [26]: 0.75 h
Structure (SMILES): CC(=O)N[C@H]1[C@H](O[C@H]2[C@H](O[C@@H]3O[C@@H](C)[C@@H](OS(=O)(=O)[O-])[C@@H](O)[C@@H]3OS(=O)(=O)O)[C@@H](O)[C@H](O[C@H]3[C@@H](NC(C)=O)[C@H](O[C@H]4[C@H](O[C@@H]5O[C@@H](C)[C@@H](OS(=O)(=O)[O-])[C@@H](O)[C@@H]5OS(=O)(=O)O)[C@@H](O)[C@H](O[C@H]5[C@@H](NC(C)=O)[C@H](O[C@H]6[C@H](O[C@@H]7O[C@@H](C)[C@@H](OS(=O)(=O)[O-])[C@@H](O)[C@@H]7OS(=O)(=O)O)[C@@H](O)[C@H](O[C@H]7[C@@H](NC(C)=O)[C@H](O[C@H]8[C@H](O[C@@H]9O[C@@H](C)[C@@H](OS(=O)(=O)[O-])[C@@H](O)[C@@H]9OS(=O)(=O)O)[C@@H](O)[C@H](O[C@H]9[C@@H](NC(C)=O)[C@H](O[C@@H]([C@H](O[C@@H]%10O[C@@H](C)[C@@H](OS(=O)(=O)[O-])[C@@H](O)[C@@H]%10OS(=O)(=O)O)[C@@H](O)CO)[C@H](O)C(=O)[O-])O[C@H](COS(=O)(=O)[O-])[C@@H]9OS(=O)(=O)[O-])O[C@@H]8C(=O)[O-])O[C@H](COS(=O)(=O)[O-])[C@@H]7OS(=O)(=O)[O-])O[C@@H]6C(=O)[O-])O[C@H](COS(=O)(=O)[O-])[C@@H]5OS(=O)(=O)[O-])O[C@@H]4C(=O)[O-])O[C@H](COS(=O)(=O)[O-])[C@@H]3OS(=O)(=O)[O-])O[C@@H]2C(=O)[O-])O[C@H](COS(=O)(=O)[O-])[C@H](OS(=O)(=O)[O-])[C@@H]1O[C@@H]1OC(C(=O)[O-])=C[C@H](O[C@@H]2O[C@@H](C)[C@@H](OS(=O)(=O)[O-])[C@@H](O)[C@@H]2OS(=O)(=O)O)[C@H]1O.[Na+].[Na+].[Na+].[Na+].[Na+].[Na+].[Na+].[Na+].[Na+].[Na+].[Na+].[Na+].[Na+].[Na+].[Na+].[Na+].[Na+].[Na+].[Na+].[Na+].[Na+].[Na+]
Emax (Mus musculus [5]): 20.2 s | Activity (Plasma [6]): Active | Activity (Plasma [12]): Active | Emax (Mus musculus [14]): 7.68 s | Activity [18]: 139 µL
